In patent publication US10654834B2 (Venenum Biodesign, LLC, priority 2016, dated 2020):
pEC50: −log10 of the molar value.

How the values were obtained:
human TGR5 receptor = target: T1, human TGR5 receptor (Homo sapiens, UniProt Q8TDU6); test: Human TGR5 cAMP production assay (hTGR5-CHO cells, DiscoveRx cAMP XS+ kit); assay type: cell-based; settings: luminescent cAMP assay, read-out: Human TGR5 Lum. cAMP Activity (EC50)
T1 construct: host or cells: CHO-K1 (hTGR5-CHO)
T1 sequence (Q8TDU6 1-330): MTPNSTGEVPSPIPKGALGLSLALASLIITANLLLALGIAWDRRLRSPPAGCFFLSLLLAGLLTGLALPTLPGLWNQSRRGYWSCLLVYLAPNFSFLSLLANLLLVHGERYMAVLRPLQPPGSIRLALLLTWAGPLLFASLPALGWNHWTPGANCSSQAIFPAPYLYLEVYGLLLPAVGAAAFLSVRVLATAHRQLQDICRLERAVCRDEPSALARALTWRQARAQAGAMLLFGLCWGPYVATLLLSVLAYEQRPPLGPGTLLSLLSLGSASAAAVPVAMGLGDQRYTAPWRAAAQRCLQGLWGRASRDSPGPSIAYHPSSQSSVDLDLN
Method in brief: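 EC50 values come from luminescent enzyme-complementation cAMP detection, read after overnight incubation. Beforehand, hTGR5-expressing CHO-K1 cells with IBMX and anti-cAMP antibody were exposed 1 h at room temperature to serially diluted (half-log) compounds.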

mouse TGR5 receptor = target: T2, mouse TGR5 receptor (Mus musculus, UniProt Q80SS6); test: Mouse TGR5 HTRF cAMP production assay (HEK293-EBNA cells, Cisbio cAMP HiRange kit); assay type: cell-based; settings: HEK293-EBNA cells overexpressing mouse TGR5, HTRF cAMP assay
T2 construct: host or cells: HEK293-EBNA (293 c18, ATCC CRL10852)
T2 sequence (Q80SS6 1-329): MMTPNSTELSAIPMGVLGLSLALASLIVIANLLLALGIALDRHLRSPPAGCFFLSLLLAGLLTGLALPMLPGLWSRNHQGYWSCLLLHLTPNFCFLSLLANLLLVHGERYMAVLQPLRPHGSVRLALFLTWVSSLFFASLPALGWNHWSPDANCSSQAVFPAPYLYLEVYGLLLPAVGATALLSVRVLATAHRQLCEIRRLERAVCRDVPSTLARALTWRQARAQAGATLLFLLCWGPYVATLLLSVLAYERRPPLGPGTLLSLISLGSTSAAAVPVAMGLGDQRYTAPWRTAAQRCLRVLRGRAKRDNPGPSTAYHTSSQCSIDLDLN
Method in brief: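 cAMP accumulation was read by competitive HTRF after 1 h room-temperature compound treatment, with a further 1 h conjugate incubation. Cells were mouse TGR5-overexpressing HEK293-EBNA in serum-free DMEM plus 500 μM IBMX. Compounds ran as 12-point half-log series in duplicate, and EC50 values were reported.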

Row | SMILES | pEC50 (human TGR5 receptor) | pEC50 (mouse TGR5 receptor)
1 | N#Cc1ccc(CCNC(=O)[C@@H]2CCN2c2cc(N3CCC(CCCC(=O)O)CC3)nc(C(F)(F)F)n2)cc1 [Compound 231, (S)-4-(1-(6-(2-((4-cyanophenethyl)carbamoyl)azetidin-1-yl)-2-(trifluoromethyl)pyrimidin-4-yl)piperidin-4-yl)butanoic acid] | > 7.00 | > 7.00
2 | N#Cc1ccc(CCNC(=O)[C@@H]2CCN2c2cc(N3CCC(CCNC(=O)NCCOCCNC(=O)CS(=O)(=O)O)CC3)nc(C(F)(F)F)n2)cc1 [Compound 356, (S)-1-(1-(6-(2-((4-cyanophenethyl)carbamoyl)azetidin-1-yl)-2-(trifluoromethyl)pyrimidin-4-yl)piperidin-4-yl)-4,12-dioxo-8-oxa-3,5,11-triazatridecane-13-sulfonic acid] | > 7.00 | > 7.00
3 | N#Cc1ccc(CCNC(=O)[C@@H]2CCCN2c2cc(N3CCC(CCCC(=O)NCCS(=O)(=O)O)CC3)cc(C(F)(F)F)n2)cc1 [Compound 199, (S)-2-(4-(1-(2-(2-((4-cyanophenethyl)carbamoyl)pyrrolidin-1-yl)-6-(trifluoromethyl)pyridin-4-yl)piperidin-4-yl)butanamido)ethanesulfonic acid] | > 7.00 | > 7.00
4 | COc1cc(C(F)(F)F)ccc1CCNC(=O)[C@@H]1CCCN1c1cc(N2CCC(CCCC(=O)O)CC2)nc(C(F)(F)F)n1 [Compound 34] | > 7.00 | > 7.00
5 | CN(C)CCC1CCN(c2cc(N3CCC[C@H]3C(=O)NCCc3ccc(C(F)(F)F)cc3)nc(C(F)(F)F)n2)CC1 [Compound 5] | > 7.00 | > 7.00
6 | N#Cc1ccc(CCNC(=O)[C@@H]2CCN2c2cc(N3CCC(CCCC(=O)NCCCCNC(=N)N)CC3)nc(C(F)(F)F)n2)cc1 [Compound 283, (S)-N-(4-cyanophenethyl)-1-(6-(4-(4-((4-guanidinobutyl)amino)-4-oxobutyl)piperidin-1-yl)-2-(trifluoromethyl)pyrimidin-4-yl)azetidine-2-carboxamide] | > 7.00 | > 7.00
7 | N#Cc1ccc(CCNC(=O)[C@@H]2CCN2c2cc(N3CCC(CCNC(=O)NCCNC(=N)N)CC3)nc(C(F)(F)F)n2)cc1 [Compound 286, (S)-N-(4-cyanophenethyl)-1-(6-(4-(2-(3-(2-guanidinoethyl)-ureido)ethyl)piperidin-1-yl)-2-(trifluoromethyl)pyrimidin-4-yl)azetidine-2-carboxamide] | > 7.00 | > 7.00
8 | N#Cc1ccc(CCNC(=O)[C@@H]2CCCN2c2cc(N3CCC(CCCC(=O)O)CC3)cc(C(F)(F)F)n2)cc1 [Compound 197, (S)-4-(1-(2-(2-((4-cyanophenethyl)carbamoyl)pyrrolidin-1-yl)-6-(trifluoromethyl)pyridin-4-yl)piperidin-4-yl)butanoic acid] | > 7.00 | > 7.00
9 | N#Cc1ccc(CCNC(=O)[C@@H]2CCCN2c2cc(N3CCC(CCC(=O)NCCS(=O)(=O)O)CC3)nc(C(F)(F)F)n2)cc1 [Compound 56, (S)-2-(3-(1-(6-(2-((4-cyanophenethyl)carbamoyl)pyrrolidin-1-yl)-2-(trifluoromethyl)pyrimidin-4-yl)piperidin-4-yl)propanamido)ethanesulfonic acid] | > 7.00 | > 7.00
10 | N#Cc1ccc(CCNC(=O)[C@@H]2CCN2c2cc(N3CCC(CCCC(=O)NCCNC(=N)N)CC3)nc(C(F)(F)F)n2)cc1 [Compound 282, (S)—N-(4-cyanophenethyl)-1-(6-(4-(4-((2-guanidinoethyl)amino)-4-oxobutyl)piperidin-1-yl)-2-(trifluoromethyl)pyrimidin-4-yl)azetidine-2-carboxamide] | > 7.00 | > 7.00
11 | O=C(CCCC1CCN(c2cc(N3CCC[C@H]3C(=O)NCCc3ccc(C(F)(F)F)cc3)nc(C(F)(F)F)n2)CC1)NCCCS(=O)(=O)O [Compound 60, (S)-3-(4-(1-(2-(trifluoromethyl)-6-(2-((4-(trifluoromethyl)phenethyl)carbamoyl)pyrrolidin-1-yl)pyrimidin-4-yl)piperidin-4-yl)butanamido)propane-1-sulfonic acid] | > 7.00 | > 7.00
12 | N#Cc1ccc(CCNC(=O)[C@@H]2CCN2c2cc(N3CCC(CCCC(=O)NC[C@@H](O)[C@H](O)[C@@H](O)[C@@H](O)CO)CC3)nc(C(F)(F)F)n2)cc1 [Compound 260, (S)—N-(4-cyanophenethyl)-1-(6-(4-(4-oxo-4-(((2R,3S,4S,5S)-2,3,4,5,6-pentahydroxyhexyl)amino)butyl)piperidin-1-yl)-2-(trifluoromethyl)pyrimidin-4-yl)azetidine-2-carboxamide] | > 7.00 | > 7.00
13 | N#Cc1ccc(CCNC(=O)[C@@H]2CCCN2c2cc(N3CCC(CCN)CC3)nc(C(F)(F)F)n2)cc1 [Compound 50, (S)-1-(6-(4-(2-aminoethyl)piperidin-1-yl)-2-(trifluoromethyl)pyrimidin-4-yl)-N-(4-cyanophenethyl)pyrrolidine-2-carboxamide] | > 7.00 | 
14 | N#Cc1ccc(CCNC(=O)[C@@H]2CCCN(c3cc(N4CCC(CO)CC4)nc(C(F)(F)F)n3)C2)cc1 [Compound 308, (R)—N-(4-cyanophenethyl)-1-(6-(4-(hydroxymethyl)piperidin-1-yl)-2-(trifluoromethyl)pyrimidin-4-yl)piperidine-3-carboxamide] | > 7.00 | 

Results, then the compound that gave them:

Row | pEC50 (human TGR5 receptor) | pEC50 (mouse TGR5 receptor) | SMILES
15 | > 7.00 | > 7.00 | N#Cc1ccc(CCNC(=O)[C@@H]2CCN2c2cc(N3CCC(CCNC(=O)NCCOCCNC(=O)NCCS(=O)(=O)O)CC3)nc(C(F)(F)F)n2)cc1 [Compound 358, (S)-15-(1-(6-(2-((4-cyanophenethyl)carbamoyl)azetidin-1-yl)-2-(trifluoromethyl)pyrimidin-4-yl)piperidin-4-yl)-4,12-dioxo-8-oxa-3,5,11,13-tetraazapentadecane-1-sulfonic acid]
16 | > 7.00 | > 7.00 | N#Cc1ccc(CCNC(=O)[C@@H]2CCCN2c2cc(N3CCC(CCCC(=O)NCC(=O)O)CC3)nc(C(F)(F)F)n2)cc1 [Compound 103, (S)-2-(4-(1-(6-(2-((4-cyanophenethyl)carbamoyl)pyrrolidin-1-yl)-2-(trifluoromethyl)pyrimidin-4-yl)piperidin-4-yl)butanamido)acetic acid]
17 | > 7.00 | > 7.00 | N#Cc1ccc(CCNC(=O)[C@@H]2CCN2c2cc(N3CCC(CCNS(=O)(=O)CCNC(=O)[C@@H](N)CS(=O)(=O)O)CC3)nc(C(F)(F)F)n2)cc1 [Compound 363, (R)-2-amino-3-((2-(N-(2-(1-(6-((S)-2-((4-cyanophenethyl)carbamoyl)azetidin-1-yl)-2-(trifluoromethyl)pyrimidin-4-yl)piperidin-4-yl)ethyl)sulfamoyl)ethyl)amino)-3-oxopropane-1-sulfonic acid]
18 | > 7.00 | > 7.00 | N#Cc1ccc(CCNC(=O)[C@@H]2CCCN2c2cc(N3CCC(CCCC(=O)NCCNc4ncc(C(=O)NCCS(=O)(=O)O)cn4)CC3)nc(C(F)(F)F)n2)cc1 [Compound 112, (S)-2-(2-((2-(4-(1-(6-(2-((4-cyanophenethyl)carbamoyl)pyrrolidin-1-yl)-2-(trifluoromethyl)pyrimidin-4-yl)piperidin-4-yl)butanamido)ethyl)amino)-pyrimidine-5-carboxamido)ethanesulfonic acid]
19 | > 7.00 | > 7.00 | N#Cc1ccc(CCNC(=O)[C@@H]2CCCN2c2cc(N3CCC(CCCC(=O)NCS(=O)(=O)O)CC3)cc(C(F)(F)F)n2)cc1 [Compound 198, (S)-(4-(1-(2-(2-((4-cyanophenethyl)carbamoyl)pyrrolidin-1-yl)-6-(trifluoromethyl)pyridin-4-yl)piperidin-4-yl)butanamido)methanesulfonic acid]
20 | > 7.00 |  | COCC1CCN(c2cc(N3CCC[C@H]3C(=O)NCCc3ccc(C#N)cc3)nc(C(F)(F)F)n2)CC1 [Compound 24]
21 | > 7.00 |  | N#Cc1ccc(CCNC(=O)[C@@H]2CCCN2c2cc(N3CCC(CCO)CC3)nc(C(F)(F)F)n2)cc1 [Compound 22]
22 | > 7.00 |  | N#Cc1ccc(CCNC(=O)[C@@H]2CCN2c2cc(N3CCC(CO)CC3)nc(C(F)(F)F)n2)cc1 [Compound 219, (S)—N-(4-cyanophenethyl)-1-(6-(4-(hydroxymethyl)piperidin-1-yl)-2-(trifluoromethyl)pyrimidin-4-yl)azetidine-2-carboxamide]
